Experimental findings from PubChem BioAssay (NCI) are described below.

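Briefly, cells in 96-well plates were exposed to five compound concentrations for 48 h, and endpoints were estimated by linear interpolation. Abbreviation: GI50, concentration required for 50% inhibition of growth. TGI: concentration producing complete growth inhibition.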 Some results are limits rather than exact numbers.

Among the test systems are A498 renal; U251 CNS; HT29 colon; NCI-H460 lung; OVCAR-8 ovarian; OVCAR-4 ovarian; MDA-MB-231 breast; HCC-2998 colon; RXF 393 renal; OVCAR-5 ovarian.
Holding throughout (experiment): NCI-60 cell line screen, 48 h

Take `CCCCC(=O)N/N=C/c1cc(I)cc(I)c1O`: the GI50 was 13.8 µM in the assay on A498 renal; 1.99 µM with U251 CNS; 8.46 µM in the assay on HT29 colon; 2.25 µM with NCI-H460 lung; 2.26 µM with OVCAR-8 ovarian; 0.918 µM in the assay with OVCAR-4 ovarian. Also, the GI50 in the assay on MDA-MB-231 breast was 2.73 µM; in the assay on HCC-2998 colon, 11.1 µM; in the assay on RXF 393 renal, 5.39 µM; with OVCAR-5 ovarian it was 12.6 µM. The TGI in the assay with A498 renal is 44.2 µM; with U251 CNS, 16.1 µM; in the assay with HT29 colon, 29.4 µM; in the assay on NCI-H460 lung, 15.5 µM; in the assay on OVCAR-8 ovarian, 13.3 µM; in the assay on OVCAR-4 ovarian, 12.7 µM. Further, the TGI in the assay on MDA-MB-231 breast was 29.9 µM; in the assay with HCC-2998 colon, more than 100 µM; in the assay with RXF 393 renal, 27.2 µM; with OVCAR-5 ovarian, more than 100 µM.
With `COC(=O)CCC(=O)c1c(C)[nH]c(/C=C2\N=C(c3ccc[nH]3)C=C2OC)c1C`, the GI50 is 7.86 µM in the assay on A498 renal; 1.08 µM with U251 CNS; 0.0737 µM with HT29 colon; 6.86 µM in the assay on NCI-H460 lung; 0.754 µM in the assay on OVCAR-8 ovarian; 2.12 µM in the assay with OVCAR-4 ovarian. The GI50 in the assay with MDA-MB-231 breast was 0.385 µM; with HCC-2998 colon, 1.41 µM; with RXF 393 renal it was 1.46 µM; in the assay on OVCAR-5 ovarian, 1.48 µM. Also, the TGI was determined as 20.7 µM with A498 renal; 3.2 µM in the assay on U251 CNS; 1.48 µM with HT29 colon; 40.9 µM in the assay with NCI-H460 lung; 2.23 µM with OVCAR-8 ovarian; 17 µM with OVCAR-4 ovarian. Besides, the TGI in the assay on MDA-MB-231 breast amounted to 2.64 µM; in the assay with HCC-2998 colon, 5.84 µM; with RXF 393 renal, 4.03 µM; in the assay on OVCAR-5 ovarian, 5.52 µM.
On to `COCCOC(=O)C1=C(C)NC2=C(C(=O)CC(c3ccccc3OC)C2)C1c1cccc(O)c1` (stereo not given), for which the GI50 is 10.2 µM with A498 renal; 16.3 µM in the assay with U251 CNS; 5.38 µM in the assay with HT29 colon; 15.5 µM in the assay on NCI-H460 lung; 11.3 µM with OVCAR-8 ovarian; 8.98 µM with OVCAR-4 ovarian. In addition, the GI50 in the assay with MDA-MB-231 breast is 13 µM; in the assay on HCC-2998 colon it was 12.2 µM; in the assay on RXF 393 renal it was 14.1 µM; with OVCAR-5 ovarian, 23.3 µM. For the same compound, the TGI is 25.9 µM in the assay with A498 renal; more than 72.2 µM with U251 CNS; 25.3 µM in the assay on HT29 colon; 42.9 µM in the assay with NCI-H460 lung; 34.9 µM with OVCAR-8 ovarian; more than 80.5 µM in the assay on OVCAR-4 ovarian. Further, the TGI in the assay with MDA-MB-231 breast is more than 72.8 µM; in the assay with HCC-2998 colon it was 27 µM; with RXF 393 renal it was 36.4 µM; in the assay on OVCAR-5 ovarian, more than 100 µM.
Turning to `O=[N+]([O-])c1ccccc1N=Nc1c(O)[nH]c2ccccc12`, the TGI in the assay on A498 renal was more than 61.6 µM; in the assay on U251 CNS it was more than 58.2 µM; with HT29 colon it was more than 100 µM; in the assay on NCI-H460 lung, more than 96.6 µM; in the assay with OVCAR-8 ovarian it was more than 53.5 µM; with OVCAR-4 ovarian, more than 61.1 µM. Moreover, the TGI in the assay on MDA-MB-231 breast is more than 47.3 µM; with HCC-2998 colon, more than 100 µM; in the assay on RXF 393 renal, more than 74.9 µM; in the assay with OVCAR-5 ovarian, more than 100 µM.
For `CCCN(CCC)c1ccc(CO)c(C)c1`, the GI50 was 1.09 µM in the assay on A498 renal; 74 µM with U251 CNS; 90.2 µM in the assay on HT29 colon; more than 100 µM with NCI-H460 lung; 27.4 µM in the assay with OVCAR-8 ovarian; 11.3 µM with OVCAR-4 ovarian. Besides, the GI50 in the assay with MDA-MB-231 breast is 77.4 µM; with HCC-2998 colon it was more than 100 µM; in the assay on RXF 393 renal it was 22.2 µM; in the assay on OVCAR-5 ovarian it was 13.1 µM. Besides, the TGI in the assay with A498 renal is 3.64 µM; in the assay with U251 CNS, more than 100 µM; with HT29 colon, more than 100 µM; in the assay on NCI-H460 lung, more than 100 µM; with OVCAR-8 ovarian, more than 100 µM; in the assay on OVCAR-4 ovarian, 25.3 µM. The TGI was more than 100 µM in the assay with MDA-MB-231 breast, more than 100 µM in the assay with HCC-2998 colon, more than 100 µM in the assay on RXF 393 renal and 44.2 µM in the assay on OVCAR-5 ovarian.
Regarding `Cn1c(COC(=O)N2CCCCC2)nc2c(N3CCOCC3)nc(-c3ccccc3)nc21`, the GI50 in the assay with A498 renal is 1.37 µM; in the assay on U251 CNS it was 1.37 µM; in the assay with HT29 colon it was 0.417 µM; in the assay with NCI-H460 lung it was 1.58 µM; in the assay with OVCAR-8 ovarian, 1.03 µM; in the assay with OVCAR-4 ovarian it was 0.638 µM. Further, the GI50 was 1.02 µM with MDA-MB-231 breast, 1.58 µM in the assay with HCC-2998 colon, 0.508 µM in the assay with RXF 393 renal and 1.42 µM in the assay with OVCAR-5 ovarian. Also, the TGI in the assay on A498 renal was determined as 2.69 µM; in the assay with U251 CNS, 2.81 µM; in the assay with HT29 colon, 1.59 µM; in the assay on NCI-H460 lung, 3.27 µM; in the assay on OVCAR-8 ovarian it was 2.57 µM; with OVCAR-4 ovarian, 1.85 µM. The TGI amounted to 2.27 µM with MDA-MB-231 breast, 3.04 µM in the assay with HCC-2998 colon, 1.76 µM in the assay on RXF 393 renal and 2.97 µM in the assay with OVCAR-5 ovarian.
